One experiment has as its system RKO xenograft. Nature of the experiment: RKO colon cancer xenograft tumor growth in nude mice. To be noted: female athymic nude mice. It counts as in vivo, mouse. The protocol:
Six-to-eight-week-old female athymic nude mice were housed with a temperature-controlled and 12-hour light/12-hour dark cycle environment. For in vivo colon cancer tumor growth, 1×10^6 RKO cells were prepared in 100 μL of DMEM and injected into right flank of female nude mice. Mouse weight and tumor volume were measured twice a week. Tumor volumes were calculated as length×width^2×0.5. Once the tumor volume had reached about 100 mm^3, xenografts were randomized into groups (5 mice per group). Animals were treated with vehicle and Compound 129b. The formulation for vehicle and Compound 129b was 50% PEG400 and 20% Cremophor RH40 final (50% of 40% Cremophor) in Acetate buffer, PH=4. The mouse were sacrificed after 4 weeks or if the tumors reached a predefined tumor volume cut-off of 2500 mm^3. […] For instance, at the highest does, a TGI of at least 80% was observed (FIG. 1). PGP-71

In the next experiment the test system is CT-26 xenografts. Nature of the experiment: CT-26 mouse colon xenograft model. It counts as in vivo. To be noted: CT-26 xenograft, female Balb/c mice; 15, 25, 50 mpk QD, 5 mpk IV BIW, 5 mpk IP QD. The protocol: Compound 129b was also tested in CT-26 mouse colon xenograft models. For CT-26 xenografts 5×10^5 CT-26 cells in 100 μL was injected in the right flank of six-to-eight-week-old female Balb/c mice. When the tumor volume reached mean of ˜100 mm^3, mice were randomized in a group of 5 and treatment was initiated vehicle, 15 mpk QD, 25 mpk QD, 50 mpk QD, 5 mpk IV BIW, and 5 mpk IP QD of Compound 129b.

The subject of experiment [1] is JIMT-1 human breast cancer cell line. Description: Cell viability assay (SRB) in JIMT-1. It counts as cell-based. To be noted: 72 hours after treatment, read-out: JIMT1 IC50. The method, boiled down:
(§1)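 JIMT-1 (3×10^3 cells/well) and HCT-116 (4×10^3 cells/well) cells were seeded and treated with inhibitors at several concentrations 24 h later. Viability was read by sulforhodamine B staining 72 h after treatment. JIMT-1 was grown in DMEM and HCT-116 in McCoy's 5A, both with FBS.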

Experiment [2] relates to HCT-116 human colon carcinoma cell line. Nature of the experiment: Cell viability assay (SRB) in HCT-116. It counts as cell-based. To be noted: 72 hours after treatment, read-out: HCT116 IC50. The method, boiled down: as §1

Here are results for four molecules from US20240374590A1, “COMPOSITIONS AND METHODS FOR TREATING CANCER” (A2A PHARMACEUTICALS, INC., priority 2021, published 2024).

The term IC50 denotes the concentration that inhibits the measured activity by half.

Turning to `COc1ccc(-c2cc(Nc3ccnc(N4C[C@@H](C)O[C@@H](C)C4)n3)[nH]n2)c(F)c1` [Compound 129b, 2-((2R,6S)-2,6-dimethylmorpholino)-N-(3-(2-fluoro-4-methoxyphenyl)-1H-pyrazol-5-yl)pyrimidin-4-amine], the “tumor growth inhibition (in words)” value in the experiment on RKO xenograft (100 mg/kg PO QD/BID/TID) is on record as “strong tumor growth inhibition”. Also, the TGI entry in the experiment with RKO xenograft (highest dose (100 mg/kg PO TID, 28 days)) is on record as “at least 80%”. Besides, the “tumor growth inhibition or regression (in words)” value with CT-26 xenografts is “Strong and statistically significant tumor growth inhibition or regression”. Besides, the IC50 stood at 3 nM in experiment [1] and 34 nM in experiment [2].

Turning to `COc1ccc(-c2cc(Nc3ccnc(N4CC(C)(C)OC(C)(C)C4)n3)[nH]n2)cc1F` [Compound 90, N-(3-(3-fluoro-4-methoxyphenyl)-1H-pyrazol-5-yl)-2-(2,2,6,6-tetramethylmorpholino)pyrimidin-4-amine], the results for the IC50 in experiment [1] and in experiment [2] were 365 nM and 733 nM, respectively.

Consider `COc1ccc(-c2cc(Nc3ccnc(N4C[C@H](C)O[C@@H](C)C4)n3)[nH]n2)c(F)c1` [Compound 150, 2-((2S,6S)-2,6-dimethylmorpholino)-N-(3-(2-fluoro-4-methoxyphenyl)-1H-pyrazol-5-yl)pyrimidin-4-amine], for which the IC50 in experiment [1] is 16 nM; in experiment [2] it was 23 nM.

Turning to `COc1ccc(-c2cc(Nc3ccnc(N4CCC(C)CC4)n3)[nH]n2)cc1` [Compound 69, N-(3-(4-methoxyphenyl)-1H-pyrazol-5-yl)-2-(4-methylpiperidin-1-yl)pyrimidin-4-amine], the figures for the IC50 in experiment [1] and in experiment [2] were 25 nM and 5 nM, respectively.
